Measured values from patent US10179939B2, “Growth-independent detection of cells” (GeneWeave Biosciences, Inc., priority 2014, dated 2019).

Experiments:
[1] = test system: MRSA; assay: Non-replicative transduction particle luxAB reporter assay with cefoxitin; assay type: cell-based, S. aureus; conditions: cells phenotypically resistant to cefoxitin (MRSA); cefoxitin added prior to, simultaneously with, or after transduction particles
Source text: (§1) To test the functionality of non-replicative transduction particles as reporters for detecting the presence of S. aureus cells, various MSSA/MRSA reporter assays were developed. In an embodiment, a non-replicative transduction particle was developed from a S. aureus-specific bacteriophage, and the bacterial luciferase genes luxAB under the control of a constitutive promoter were incorporated. When the non-replicative transduction particle delivered the reporter nucleic acid into S. aureus, the constitutive promoter expressed luxAB suitable for reporting on the presence of a viable S. aureus.
(§2) In addition, the antibiotic cefoxitin was added prior to, simultaneously with, or after the addition of the transduction particles to a sample containing S. aureus cells.

[2] = test system: MSSA; assay: as above; assay type: cell-based, S. aureus; conditions: cells not phenotypically resistant to cefoxitin (MSSA); cefoxitin added prior to, simultaneously with, or after transduction particles
Source text: as §1, §2

CO[C@@]1(NC(=O)Cc2cccs2)C(=O)N2C(C(=O)O)=C(COC(N)=O)CS[C@@H]21 [cefoxitin]
luminescence [1]: increased or detectable luminescence
luminescence [2]: decreased or eliminated
